Laboratory results published in the supplement of paper PMC10307832.

Columns and labels:
Assay in all cases: relative viability (nuclei count vs DMSO), 5 days (fraction); higher = more cells survive
[1] = compound: COc1cc2c(Oc3ccc4[nH]c(C)cc4c3F)ncnc2cc1OCCCN1CCCC1 [Cediranib] + CC1(C)CCC(c2ccc(Cl)cc2)=C(CN2CCN(c3ccc(C(=O)NS(=O)(=O)c4ccc(N[C@H](CCN5CCOCC5)CSc5ccccc5)c(S(=O)(=O)C(F)(F)F)c4)cc3)CC2)C1 [Navitoclax] (partner 0.5 µM)
Summary of the method: (§1)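 For relative viability, nuclei counts in treated wells were divided by those in vehicle wells. Lung cancer cell lines had been pin-tool dosed in 1536-well plates the day after seeding and cultured for 5 days, then fixed and stained in one step (final 0.05% Triton X-100, 1% formaldehyde, 1 ug/ml Hoechst) and imaged at 4×. Doses were one drug alone or a fixed anchor-drug dose plus five library-drug doses (not always all listed) in √10 steps, and values are duplicate-plate medians.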

[2] = compound: Nc1ncn([C@H]2C[C@H](O)[C@@H](CO)O2)c(=O)n1 [Decitabine] + CC1(C)CCC(c2ccc(Cl)cc2)=C(CN2CCN(c3ccc(C(=O)NS(=O)(=O)c4ccc(N[C@H](CCN5CCOCC5)CSc5ccccc5)c(S(=O)(=O)C(F)(F)F)c4)cc3)CC2)C1 [Navitoclax] (partner 0.5 µM)
Summary of the method: as §1

[3] = compound: Nc1ncn([C@H]2C[C@H](O)[C@@H](CO)O2)c(=O)n1 [Decitabine] + C[C@]1(O)C[C@@H](c2nc(-c3ccc4ccc(-c5ccccc5)nc4c3)c3c(N)nccn32)C1 [Linsitinib] (partner 1 µM)
Summary of the method: as §1

[4] = compound: Nc1ncn([C@H]2C[C@H](O)[C@@H](CO)O2)c(=O)n1 [Decitabine] + N=C(N)NC(=N)NCCc1ccccc1 [Phenformin] (partner 250 µM)
Summary of the method: as §1

## NCI-H2009
[1]; first compound 0.04 µM
  relative viability: 1.2
[1]; first compound 0.1265 µM
  relative viability: 1.14
[1]; first compound 0.4 µM
  relative viability: 1.16
[1]; first compound 1.265 µM
  relative viability: 1.14
[1]; first compound 4 µM
  relative viability: 1.11
[2]; first compound 0.04 µM
  relative viability: 0.945
[2]; first compound 0.1265 µM
  relative viability: 0.722
[2]; first compound 0.4 µM
  relative viability: 0.568
[2]; first compound 1.265 µM
  relative viability: 0.416
[2]; first compound 4 µM
  relative viability: 0.263
[3]; first compound 0.04 µM
  relative viability: 1.08
[3]; first compound 0.1265 µM
  relative viability: 0.801
[3]; first compound 0.4 µM
  relative viability: 0.601
[3]; first compound 1.265 µM
  relative viability: 0.383
[3]; first compound 4 µM
  relative viability: 0.33
[4]; first compound 0.04 µM
  relative viability: 0.433
[4]; first compound 0.1265 µM
  relative viability: 0.4
[4]; first compound 0.4 µM
  relative viability: 0.333
[4]; first compound 1.265 µM
  relative viability: 0.282
[4]; first compound 4 µM
  relative viability: 0.286

## COR-L23
[1]; first compound 0.04 µM
  relative viability: 0.966
[1]; first compound 0.1265 µM
  relative viability: 1.14
[1]; first compound 0.4 µM
  relative viability: 0.893
[1]; first compound 1.265 µM
  relative viability: 0.922
[1]; first compound 4 µM
  relative viability: 1.03
[2]; first compound 0.04 µM
  relative viability: 0.577
[2]; first compound 0.1265 µM
  relative viability: 0.478
[2]; first compound 0.4 µM
  relative viability: 0.382
[2]; first compound 1.265 µM
  relative viability: 0.294
[2]; first compound 4 µM
  relative viability: 0.207
[3]; first compound 0.04 µM
  relative viability: 0.647
[3]; first compound 0.1265 µM
  relative viability: 0.482
[3]; first compound 0.4 µM
  relative viability: 0.374
[3]; first compound 1.265 µM
  relative viability: 0.272
[3]; first compound 4 µM
  relative viability: 0.19
[4]; first compound 0.04 µM
  relative viability: 0.362
[4]; first compound 0.1265 µM
  relative viability: 0.311
[4]; first compound 0.4 µM
  relative viability: 0.303
[4]; first compound 1.265 µM
  relative viability: 0.253
[4]; first compound 4 µM
  relative viability: 0.253

## NCI-H460
[1]; first compound 0.04 µM
  relative viability: 1.12
[1]; first compound 0.1265 µM
  relative viability: 1.1
[1]; first compound 0.4 µM
  relative viability: 0.938
[1]; first compound 1.265 µM
  relative viability: 0.993
[1]; first compound 4 µM
  relative viability: 1.33
[2]; first compound 0.04 µM
  relative viability: 0.974
[2]; first compound 0.1265 µM
  relative viability: 1.03
[2]; first compound 0.4 µM
  relative viability: 0.612
[2]; first compound 1.265 µM
  relative viability: 0.292
[2]; first compound 4 µM
  relative viability: 0.198
[3]; first compound 0.04 µM
  relative viability: 0.651
[3]; first compound 0.1265 µM
  relative viability: 0.855
[3]; first compound 0.4 µM
  relative viability: 0.669
[3]; first compound 1.265 µM
  relative viability: 0.168
[3]; first compound 4 µM
  relative viability: 0.114
[4]; first compound 0.04 µM
  relative viability: 0.473
[4]; first compound 0.1265 µM
  relative viability: 0.473
[4]; first compound 0.4 µM
  relative viability: 0.472
[4]; first compound 1.265 µM
  relative viability: 0.223
[4]; first compound 4 µM
  relative viability: 0.157

## HCC-827
[1]; first compound 0.04 µM
  relative viability: 1.02
[1]; first compound 0.4 µM
  relative viability: 1.02
[1]; first compound 1.265 µM
  relative viability: 1.04
[1]; first compound 4 µM
  relative viability: 1.1
[2]; first compound 0.1265 µM
  relative viability: 0.471
[2]; first compound 0.4 µM
  relative viability: 0.404
[2]; first compound 1.265 µM
  relative viability: 0.269
[2]; first compound 4 µM
  relative viability: 0.939
[3]; first compound 0.1265 µM
  relative viability: 0.501
[3]; first compound 0.4 µM
  relative viability: 0.396
[3]; first compound 1.265 µM
  relative viability: 0.324
[3]; first compound 4 µM
  relative viability: 0.93
[4]; first compound 0.04 µM
  relative viability: 0.17
[4]; first compound 0.1265 µM
  relative viability: 0.288
[4]; first compound 0.4 µM
  relative viability: 0.283
[4]; first compound 1.265 µM
  relative viability: 0.214
[4]; first compound 4 µM
  relative viability: 0.289

## NCI-H322M
[1]; first compound 0.04 µM
  relative viability: 1.22
[1]; first compound 0.1265 µM
  relative viability: 1.21
[1]; first compound 0.4 µM
  relative viability: 1.08
[1]; first compound 1.265 µM
  relative viability: 1.21
[1]; first compound 4 µM
  relative viability: 1.14
[2]; first compound 0.04 µM
  relative viability: 0.841
[2]; first compound 0.1265 µM
  relative viability: 0.892
[2]; first compound 0.4 µM
  relative viability: 0.777
[2]; first compound 1.265 µM
  relative viability: 0.505
[2]; first compound 4 µM
  relative viability: 0.509
[3]; first compound 0.04 µM
  relative viability: 0.773
[3]; first compound 0.1265 µM
  relative viability: 0.844
[3]; first compound 0.4 µM
  relative viability: 0.737
[3]; first compound 1.265 µM
  relative viability: 0.497
[3]; first compound 4 µM
  relative viability: 0.472
[4]; first compound 0.04 µM
  relative viability: 0.647
[4]; first compound 0.1265 µM
  relative viability: 0.745
[4]; first compound 0.4 µM
  relative viability: 0.6
[4]; first compound 1.265 µM
  relative viability: 0.478
[4]; first compound 4 µM
  relative viability: 0.549

## NCI-H1666
[1]; first compound 0.04 µM
  relative viability: 0.875
[1]; first compound 0.1265 µM
  relative viability: 1
[1]; first compound 0.4 µM
  relative viability: 0.989
[1]; first compound 1.265 µM
  relative viability: 1.09
[1]; first compound 4 µM
  relative viability: 1.1
[2]; first compound 0.04 µM
  relative viability: 0.85
[2]; first compound 0.1265 µM
  relative viability: 0.776
[2]; first compound 0.4 µM
  relative viability: 0.687
[2]; first compound 1.265 µM
  relative viability: 0.465
[2]; first compound 4 µM
  relative viability: 0.487
[3]; first compound 0.04 µM
  relative viability: 0.816
[3]; first compound 0.1265 µM
  relative viability: 0.706
[3]; first compound 0.4 µM
  relative viability: 0.672
[3]; first compound 1.265 µM
  relative viability: 0.629
[3]; first compound 4 µM
  relative viability: 0.689
[4]; first compound 0.04 µM
  relative viability: 0.617
[4]; first compound 0.1265 µM
  relative viability: 0.568
[4]; first compound 0.4 µM
  relative viability: 0.522
[4]; first compound 1.265 µM
  relative viability: 0.506
[4]; first compound 4 µM
  relative viability: 0.593

## NCI-H1793
[1]; first compound 0.04 µM
  relative viability: 0.59
[1]; first compound 0.1265 µM
  relative viability: 0.468
[1]; first compound 0.4 µM
  relative viability: 0.461
[1]; first compound 4 µM
  relative viability: 0.46
[2]; first compound 0.04 µM
  relative viability: 0.356
[2]; first compound 0.1265 µM
  relative viability: 0.406
[2]; first compound 0.4 µM
  relative viability: 0.333
[2]; first compound 1.265 µM
  relative viability: 0.227
[2]; first compound 4 µM
  relative viability: 0.169
[3]; first compound 0.04 µM
  relative viability: 0.848
[3]; first compound 0.1265 µM
  relative viability: 0.947
[3]; first compound 0.4 µM
  relative viability: 0.854
[3]; first compound 1.265 µM
  relative viability: 0.5
[3]; first compound 4 µM
  relative viability: 0.434
[4]; first compound 0.04 µM
  relative viability: 0.384
[4]; first compound 0.1265 µM
  relative viability: 0.411
[4]; first compound 0.4 µM
  relative viability: 0.336
[4]; first compound 1.265 µM
  relative viability: 0.305
[4]; first compound 4 µM
  relative viability: 0.244

## NCI-H1437
[1]; first compound 0.04 µM
  relative viability: 1.14
[1]; first compound 0.1265 µM
  relative viability: 1.17
[1]; first compound 0.4 µM
  relative viability: 1.06
[1]; first compound 1.265 µM
  relative viability: 1.07
[1]; first compound 4 µM
  relative viability: 1.13
[2]; first compound 0.04 µM
  relative viability: 0.768
[2]; first compound 0.1265 µM
  relative viability: 0.676
[2]; first compound 0.4 µM
  relative viability: 0.371
[2]; first compound 1.265 µM
  relative viability: 0.271
[2]; first compound 4 µM
  relative viability: 0.27
[3]; first compound 0.04 µM
  relative viability: 0.894
[3]; first compound 0.1265 µM
  relative viability: 0.771
[3]; first compound 0.4 µM
  relative viability: 0.385
[3]; first compound 1.265 µM
  relative viability: 0.259
[3]; first compound 4 µM
  relative viability: 0.233
[4]; first compound 0.04 µM
  relative viability: 0.29
[4]; first compound 0.1265 µM
  relative viability: 0.311
[4]; first compound 0.4 µM
  relative viability: 0.209
[4]; first compound 1.265 µM
  relative viability: 0.233
[4]; first compound 4 µM
  relative viability: 0.26
